Assay results reported in publication PMC6467771 (Journal of medicinal chemistry, 2019).
Converted amounts (≈) assume the structure as drawn. Like-named read-outs stand apart in the source and are kept apart here.

Legend:
[1] = Rat pharmacokinetics; format: in vivo; settings: for renal clearance to the urine: after IV and PO administration
[2] = biological target: FmlH (Escherichia coli, UniProt Q1RBS0); format: binding, Escherichia coli (UPEC, CFT073)
[3] = Kinetic aqueous solubility; format: physicochemical; settings: pH 7.4; for solubility kinetic: aqueous solution
[4] = tested on: uropathogenic Escherichia coli (UPEC); settings: cited from earlier work
[5] = Mouse liver microsome stability; format: in vitro ADME
[6] = Stability in simulated intestinal fluid; format: in vitro ADME
[7] = Stability in simulated gastric fluid; format: in vitro ADME
[8] = Mouse plasma stability; format: in vitro ADME
[9] = IC50, ELISA, FmlH binding to desialylated bovine submaxillary mucin, average of four or more replicates

Q: For `CC(=O)NC1[C@H](Oc2cccc(C(F)(F)F)c2-c2cccc(NS(C)(=O)=O)c2)O[C@H](CO)[C@H](O)[C@@H]1O` (stereo in doubt) [Compound 90, N-((2S,3S,4R,5R)-4,5-Dihydroxy-6-(hydroxymethyl)-2-((3’-(meth-ylsulfonamido)-6-(trifluoromethyl)-[1,1’-biphenyl]-2-yl)oxy)-tetrahydro-2H-pyran-3-yl)acetamide], which “renal clearance to the urine” value [1] is on record?
A: Its value is “low renal clearance to the urine”.

Q: What about the clearance ([1]; plasma, iv, 3 mg/kg) of the same molecule?
A: Its clearance is 57 mL/min/kg.

Q: And the “fold greater potency / improvement in activity relative to 1” value ([2]; ELISA IC50 ratio)?
A: The value was roughly 20 fold.

Q: And the IC50 [2, 9]?
A: Its IC50 is 34 nM.

Q: Which results are given for `CC(=O)N[C@H]1[C@H](Oc2cccc(C)c2-c2cccc(NS(=O)(=O)C3CC3)c2)O[C@H](CO)[C@H](O)[C@@H]1O` [Compound 86, N-((2S,3R,4R,5R,6R)-2-((3’-(Cyclopropanesulfonamido)-6-meth-yl-[1,1’-biphenyl]-2-yl)oxy)-4,5-dihydroxy-6-(hydroxymethyl)-tetrahydro-2H-pyran-3-yl)acetamide]?
A: renal clearance to the urine [1]: low renal clearance to the urine; solubility kinetic [3]: 196 µM (≈ 99.3 µg/mL); IC50 [2, 9]: 51 nM

Q: What does the source list for `CC(=O)N[C@H]1[C@H](Oc2cccc(C)c2-c2cccc(NS(C)(=O)=O)c2)O[C@H](CO)[C@H](O)[C@@H]1O` [Compound 84, N-((2S,3R/4R/5R,6R)-4/5-Dihydroxy-6-(hydroxymethyl)-2-((6-methyl-3’-(methylsulfonamido)-[1,1’-biphenyl]-2-yl)oxy)-tetrahydro-2H-pyran-3-yl)acetamide]?
A: solubility kinetic [3]: 195 µM (≈ 93.7 µg/mL); IC50 [2, 9]: 62 nM; IC50 ([2]; IC50 expressed as a concentration, converted from IC50 of 120 nM): 120 nM

Q: For `CC(=O)N[C@H]1[C@H](Oc2ccccc2-c2cccc(C(=O)O)c2)O[C@H](CO)[C@H](O)[C@@H]1O` [Compound 1], which IC50 [2, 9] is on record?
A: The IC50 was 640 nM.

Q: And the “effect on bacterial titers in bladder and kidney” value ([4]; co-administration with 4Z269, a mannoside inhibitor of FimH)?
A: The value was “further reduced bacterial titers in both the bladder and kidney”.

Q: And the “effect on bladder and kidney CFUs” value ([4]; treatment model of chronic cystitis)?
A: Its value is “significantly reduce bladder and kidney CFUs”.

Q: With `CC(=O)N[C@H]1[C@H](Oc2cccc(F)c2-c2cccc(NS(C)(=O)=O)c2)O[C@H](CO)[C@H](O)[C@@H]1O` [Compound 80, N-((2S,3R,4R,5R,6R)-2-((6-Fluoro-3’-(methylsulfonamido)-[1,1’- biphenyl]-2-yl)oxy)-4,5-dihydroxy-6-(hydroxymethyl)tetrahydro-2H-pyran-3-yl)acetamide] as the molecule, how does the solubility kinetic [3] read?
A: The solubility kinetic was 197 µM (≈ 95.4 µg/mL).

Q: What about the IC50 [2, 9] of the same molecule?
A: Its IC50 is 88 nM.

Q: Which “mouse liver microsomes (t1/2 min)” value [5] does the source give for “N-((2S,3S,4R,5R)-4/5-Dihydro xy-6-(hydroxymethyl)-2-((6-methyl-3’-(methylsulfonamido)-[1,1’-biphenyl]-2-yl)oxy)tetrahydro-2H-pyran-3-yl)-2,2,2-trifluoroacetimidic Acid [Compound 88]” here?
A: Its value is greater than 2.42 h.

Q: And the kinetic solubility ([3]; aqueous)?
A: The kinetic solubility was 164 µM.

Q: What about the “SIF (% remaining @ 2 h)” value [6] of the same molecule?
A: The value was 89%.

Q: What about the “SGF (% remaining @ 6 h)” value [7] of the same molecule?
A: Its value is 91%.

Q: What about the “mouse plasma (% remaining @ 2 h)” value [8] of the same molecule?
A: The value was 89%.

Q: What about the IC50 ([2]; ELISA, FmlH binding to desialylated bovine submaxillary mucin, average of four or more replicates) of the same molecule?
A: Its IC50 is 48 nM.

Q: Which IC50 [2, 9] does the source give for `CS(=O)(=O)Nc1cccc(-c2ccccc2O[C@@H]2O[C@H](CO)[C@H](O)[C@H](O)[C@H]2O)c1` [Compound 51, N-(2’-(((2S,3R,4S,5R,6R)-3,4,5-Trihydroxy-6-(hydroxymethyl)-tetrahydro-2H-pyran-2-yl)oxy)-[1,1’-biphenyl]-3-yl)-methanesulfonamide] here?
A: Its IC50 is 1600 nM.

Q: For `CC(=O)N[C@H]1[C@H](Oc2cccc(C(=O)O)c2-c2cccc(NS(C)(=O)=O)c2)O[C@H](CO)[C@H](O)[C@@H]1O` [Compound 82, 6-(((2S,3S,4R,5R)-3-Acetamido-4,5-dihydroxy-6 (hydroxymethyl)tetrahydro-2H-pyran-2-yl)oxy)-3 ‘-(methylsulfona-mido)-[1,1’-biphenyl]-2-carboxylic Acid], which IC50 [2, 9] is on record?
A: The IC50 was 66 nM.

Q: For `CC(=O)N[C@H]1[C@H](Oc2ccccc2-c2cccc(O)c2)O[C@H](CO)[C@H](O)[C@@H]1O` [Compound 32, N-((2S,3R,4R,5R,6R)-4,5-Dihydroxy-2-((3’-hydroxy-[1,1’ biphenyl]-2-yl)oxy)-6-(hydroxymethyl)tetrahydro-2H-pyran-3-yl)-acetamide], which IC50 [2, 9] is on record?
A: Its IC50 is 700 nM.

Q: For `O=C(O)c1cc(-c2ccccc2O[C@@H]2O[C@H](CO)[C@H](O)[C@H](O)[C@H]2O)cc([N+](=O)[O-])c1` [Compound 30, 5-Nitro-2’-(((2S,3R,4S,5R,6R)-3,4,5-trihydroxy-6-(hydroxymethyl)-tetrahydro-2H-pyran-2-yl)oxy)-[1,1’-biphenyl]-3-carboxylic Acid], which “fold more potent than the matched pair Gal/GalNAc derivative” value ([2]; ELISA IC50 ratio, 50 vs 51, 30 vs 29) is on record?
A: The value was 6 fold.

Q: And the IC50 [2, 9]?
A: Its IC50 is 280 nM.

Q: Which IC50 [2, 9] does the source give for `COc1ccc(OS(C)(=O)=O)cc1-c1ccccc1O[C@@H]1O[C@H](CO)[C@H](O)[C@H](O)[C@H]1NC(C)=O` [Compound 35, 2’-(((2S,3R,4R,5R,6R)-3-Acetamido-4,5-dihydroxy-6 (hydroxymethyl)tetrahydro-2H-pyran-2-yl)oxy)-6-methoxy-[1,1’-biphenyl]-3-yl Methanesulfonate] here?
A: Its IC50 is 3700 nM.
